Assay results: patent publication US20090042912A1, “DIPHENYLIMIDAZOLYL COMPOUNDS AS INHIBITORS OF beta-SECRETASE” (Wyeth, priority 2004, published 2009)
Read-outs that look alike come from different tables or passages of the source.

What was measured:
human BACE1 = human BACE1 (Homo sapiens, UniProt P56817); test: Fluorescent kinetic assay, inhibition of BACE1 (WABC-6 peptide substrate); assay type: biochemical
Procedure: Evaluation of the Enzyme Activity of Test Compounds and the Inhibition of hBACE1, MuBACE1 and hBACE2 by Test Compounds
The concentration is determined by absorbance at 354 nm using an extinction coefficient ε of 18172 M^−1cm^−1, The substrate stock is stored in small aliquots at −80° C. [Substrate Stock]=ABS^354 nm*10^6/18172 ([…])
Dilution and mixing steps: total reaction volume: 100 μL • 1. 2× inhibitor dilutions in buffer A (66.7 mM Na-Acetate, pH 4.5, 0.0667% CHAPS) are prepared, • 2. 4× enzyme dilution in buffer A (66.7 mM Na-Acetate, pH 4.5, 0.0667% CHAPS) are prepared, • 3. 100 μM substrate dilution in 1× PBS is prepared, • 4. 50 μL 2× Inhibitor and 25 μL 100 μM substrate are added to each well of 96-well plate (from DYNEX Technologies, VWR #: 11311-046), the immediately 25 μL 4× enzyme are added to the inhibitor and substrate mixer, the fluorescence readings are initiated.
Readings at λex 320 nm and λem 420 nm are taken every 40-sec for 30 min at room temperature to determine the linear slope for substrate cleavage rate (vi).

human BACE2 = molecular target: T1, human BACE2 (Homo sapiens, UniProt Q9Y5Z0); test: Fluorescent kinetic assay for human recombinant BACE 2 (WABC-6 peptide substrate); assay type: biochemical; details: for IC50: 1.5 nM enzyme, 25 μM substrate, pH 4.5, room temperature; for inhibition at 25 µM: read-out: BACE2. % inhibition
T1 sequence (Q9Y5Z0 63-518): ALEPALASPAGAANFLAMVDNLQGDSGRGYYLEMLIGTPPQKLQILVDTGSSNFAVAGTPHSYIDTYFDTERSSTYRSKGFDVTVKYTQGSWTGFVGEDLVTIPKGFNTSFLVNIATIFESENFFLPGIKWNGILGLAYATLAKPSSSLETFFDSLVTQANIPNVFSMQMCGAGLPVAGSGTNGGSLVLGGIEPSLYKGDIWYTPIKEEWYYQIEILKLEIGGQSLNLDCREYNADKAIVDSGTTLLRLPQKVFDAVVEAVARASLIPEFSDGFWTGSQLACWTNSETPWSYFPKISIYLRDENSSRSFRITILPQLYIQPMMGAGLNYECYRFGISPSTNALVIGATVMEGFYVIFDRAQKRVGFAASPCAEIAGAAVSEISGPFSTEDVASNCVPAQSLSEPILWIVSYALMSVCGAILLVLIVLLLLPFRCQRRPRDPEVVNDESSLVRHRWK
Procedure: Fluorescent Kinetic Assay for Human Recombinant BACE 2
This assay is used to provide kinetic and selectivity parameters for the analyses of the tested compounds.
Temperature: room temperature.
Dilution and Mixing Steps: Total Reaction Volume.: 100 μL • 1.
Readings at λex 320 nm, λem 420 nm are taken every 40-sec for 30 min at room temperature and to determine the linear slope for substrate cleavage rate (vi).

[1] = 10 nM enzyme, 25 μM substrate, pH 4.5, room temperature, read-out: IC50 (μM) BACE1.

human BACE1, sequence (P56817 46-501): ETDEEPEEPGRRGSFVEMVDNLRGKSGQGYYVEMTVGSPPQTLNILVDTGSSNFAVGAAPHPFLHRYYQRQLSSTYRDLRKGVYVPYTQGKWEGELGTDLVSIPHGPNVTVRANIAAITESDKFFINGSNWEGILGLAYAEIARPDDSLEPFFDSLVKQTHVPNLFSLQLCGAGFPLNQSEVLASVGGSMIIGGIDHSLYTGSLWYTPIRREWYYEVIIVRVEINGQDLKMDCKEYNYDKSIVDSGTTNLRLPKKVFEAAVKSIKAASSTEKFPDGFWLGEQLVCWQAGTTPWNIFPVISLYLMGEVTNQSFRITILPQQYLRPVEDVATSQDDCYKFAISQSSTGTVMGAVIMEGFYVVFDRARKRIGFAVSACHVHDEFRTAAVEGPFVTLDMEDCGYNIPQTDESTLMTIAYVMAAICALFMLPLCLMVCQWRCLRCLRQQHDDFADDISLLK

| Compound | IC50 (human BACE1; [1]) [µM] | IC50 (human BACE2) [µM] | melting point [°C] | inhibition at 25 µM (human BACE2; at 25 μM) [%] | other results |
| --- | --- | --- | --- | --- | --- |
| NC1=NC(c2ccc(OC(F)F)cc2)(c2cccc(-c3cccnc3F)c2)C2=NCC3(CCC3)CN12 (stereo not shown) [Example 47, 8′-[4-(difluoromethoxy)phenyl]-8′-[3-(2-fluoropyridin-3-yl)phenyl]-2′,8′-dihydrospiro[cyclobutane-1,3′-imidazo[1,5-a]pyrimidin]-6′-amine] | 0.01 | 1.15 | 220 to 226 | – | – |
| COc1ccc(C2(c3ccc(F)c(-c4cccnc4F)c3)N=C(N)N3CCCN=C32)cc1 (stereo not shown) [Example 24, 8-[4-fluoro-3-(2-fluoropyridin-3-yl)phenyl]-8-(4-methoxyphenyl)-2,3,4,8-tetrahydroimidazo[1,5-a]pyrimidin-6-amine] | 0.06 | 8.18 | 115 | – | – |
| CC1(C)CN2C(N)=NC(c3ccc(OC(F)(F)F)cc3)(c3cccc(-c4cccnc4F)c3)C2=N1 (stereo not shown) [Example 42, 7-[3-(2-Fluoropyridin-3-yl)phenyl]-2,2-dimethyl-7-(4-trifluoromethoxyphenyl)-2,7-dihydro-3H-imidazo[1,5-a]imidazol-5-ylamine] | 0.15 | – | – | 52 | – |
| CCOc1ccc(C2(c3cccc(-c4cccnc4F)c3)N=C(N)N3CCCN=C32)cc1OCC (stereo not shown) [Example 25] | 0.083 | 9.87 | 202 to 208 | – | – |
| NC1=NC(c2cccc(-c3cccnc3F)c2)(c2ccc3c(c2)OC(F)(F)O3)C2=NCCCN12 (stereo not shown) [Example 43, 8-(2,2-Difluoro-benzo[1,3]dioxol-5-yl)-8-[3-(2-fluoro-pyridin-3-yl)-phenyl]-2,3,4,8-tetrahydro-imidazo[1,5-a]pyrimidin-6-ylamine] | 0.74 | – | 95 to 99 | 53 | – |
| NC1=NC(c2ccc(OC(F)(F)F)cc2)(c2cccc(-c3cccnc3F)c2)C2=NCCCN12 (stereo not shown) [Example 17, 8-[3-(2-fluoropyridin-3-yl)phenyl]-8-[4-(trifluoromethoxy)phenyl]-2,3,4,8-tetrahydroimidazo[1,5-a]pyrimidin-6-amine] | – | 11.4 | 105 to 115 | – | – |
| NC1=N[C@@](c2ccc(OC(F)(F)F)cc2)(c2cccc(-c3cncnc3)c2)C2=NCCCN12 (single isomer, unassigned) [Example 31B] | – | – | – | – | inhibition at 25 µM (human BACE2): 28% |
| NC1=NC(c2ccc(OC(F)(F)F)cc2)(c2cccc(-c3ccc[n+]([O-])c3F)c2)C2=NCCCN12 (stereo not shown) [Example 34, 8-[3-(2-Fluoro 1-oxy-pyridin-3-yl)-phenyl]-8-(4-trifluoromethoxy-phenyl)-2,3,4,8-tetrahydro-imidazo[1,5-a]pyrimidin-6-ylamine] | – | – | – | 25 | – |
| COc1ccc(C2(c3cccc(-c4cncnc4)c3)N=C(N)N3CCCN=C32)cc1 (stereo not shown) [Example 22, 8-(4-methoxyphenyl)-8-(3-pyrimidin-5-ylphenyl)-2,3,4,8-tetrahydroimidazo[1,5-a]pyrimidin-6-amine] | – | – | 136 to 140 | 60 | – |
| NC1=NC(c2ccc(OC(F)(F)F)cc2)(c2cccc(-c3cccnc3F)c2)C2=NCCCCCN12 (stereo not shown) [Example 37, 1-[3-(2-Fluoro-pyridin-3-yl)-phenyl]-1-(4-trifluoromethoxy-phenyl)-1,4,5,6,7,8-hexahydro-2,3a,9-triaza-cyclopentacycloocten-3-ylamine] | – | 10.8 | – | – | – |
| NC1=NC(c2ccc(OC(F)(F)F)cc2)(c2cccc(-c3cccnc3F)c2)C2=NCCCCN12 (stereo not shown) [Example 36, 9-[3-(2-Fluoro-pyridin-3-yl)-phenyl]-9-(4-trifluoromethoxy-phenyl)-2,4,5,9-tetrahydro-3H-imidazo[1,5-a][1,3]diazepin-7-ylamine] | – | 7.32 | – | – | IC50 (human BACE1): 0.071 µM |
| NC1=NC(c2ccc(OC(F)(F)F)cc2)(c2cccc(-c3cncnc3)c2)C2=NCCCN12 (stereo not shown) [Example 16, 8-(3-pyrimidin-5-ylphenyl)-8-[4-(trifluoromethoxy)phenyl]-2,3,4,8-tetrahydroimidazo[1,5-a]pyrimidin-6-amine] | – | – | 214 to 218 | – | inhibition at 25 µM (human BACE2): 49% |
| NC1=NC(c2ccc(OC(F)(F)F)cc2)(c2cccc(-c3cncnc3)c2)c2nccn21 (stereo not shown) [Example 5] | 0.23 | – | – | 50 | – |
| N#CNC1=NC(c2ccc(OC(F)(F)F)cc2)(c2cccc(-c3cncnc3)c2)C2=NCCCN12 (stereo not shown) [Example 29, 8-(3-Pyrimidin-5-yl-phenyl)-8-(4-trifluoromethoxy-phenyl)-2,3,4,8-tetrahydro-imidazo[1,5-a]pyrimidin-6-yl-cyanamide] | – | – | 227 to 231 | – | – |
| NC1=NC(c2ccc(OC(F)(F)F)cc2)(c2cccc(-c3cnccc3F)c2)C2=NCCCN12 (stereo not shown) [Example 27, 8-[3-(4-fluoropyridin-3-yl)phenyl]-8-[4-(trifluoromethoxy)phenyl]-2,3,4,8-tetrahydroimidazo[1,5-a]pyrimidin-6-amine] | – | – | 83 to 97 | – | – |
| NC1=NC(c2cccc(-c3cccnc3F)c2)(c2ccc3c(c2)OCO3)C2=NCCCN12 (stereo not shown) [Example 40, 8-Benzo[1,3]dioxol-5-yl-8-[3-(2-fluoro-pyridin-3-yl)-phenyl]-2,3,4,8-tetrahydro-imidazo[1,5-a]pyrimidin-6-ylamine] | – | – | 106 to 119 | – | IC50 (human BACE1; read-out: IC50 (μM) BACE1.): 0.16 µM |

Further lines, with some results ahead:

| IC50 (human BACE1; [1]) [µM] | IC50 (human BACE2) [µM] | melting point [°C] | inhibition at 25 µM (human BACE2; at 25 μM) [%] | Compound | other results |
| --- | --- | --- | --- | --- | --- |
| 0.01 | 0.7 | – | – | NC1=N[C@](c2ccc(OC(F)F)cc2)(c2cccc(-c3cccnc3F)c2)C2=NCCCN12 [Example 45A, (8R)-8-(4-Difluoromethoxy-phenyl)-8-[3-(2-fluoro-pyridin-3-yl)-phenyl]-2,3,4,8-tetrahydro-imidazo[1,5-a]pyrimidin-6-ylamine] | – |
| 0.05 | 4 | – | – | NC1=N[C@@](c2ccc(OC(F)(F)F)cc2)(c2cccc(-c3cnccc3F)c2)C2=NCCCN12 [Example 33A, (8S)-8-[3-(4-fluoropyridin-3-yl)phenyl]-8-[4-(trifluoromethoxy)-phenyl]-2,3,4,8-tetrahydroimidazo[1,5-a]pyrimidin-6-amine] | – |
| 0.029 | 0.272 | – | – | NC1=N[C@@](c2ccc(OC(F)(F)F)cc2)(c2cccc(-c3cncc(Cl)c3)c2)C2=NCCCN12 [Example 32A, (8S)-8-[3-(5-Chloropyridin-3-yl)phenyl]-8-[4-(trifluoromethoxy)-phenyl]-2,3,4,8-tetrahydroimidazo[1,5-a]pyrimidin-6-amine] | – |
| – | – | – | 34 | NC1=N[C@](c2ccc(OC(F)(F)F)cc2)(c2cccc(-c3cncc(Cl)c3)c2)C2=NCCCN12 [Example 32B, (8R)-8-[3-(5-Chloropyridin-3-yl)phenyl]-8-[4-(trifluoromethoxy)-phenyl]-2,3,4,8-tetrahydroimidazo[1,5-a]pyrimidin-6-amine] | inhibition at 5 µM (human BACE1): 19% |
| – | – | – | 60 | NC1=N[C@@](c2ccc(OC(F)F)cc2)(c2cccc(-c3cccnc3F)c2)C2=NCCCN12 [Example 45B, (8S)-8-(4-Difluoromethoxy-phenyl)-8-[3-(2-fluoro-pyridin-3-yl)-phenyl]-2,3,4,8-tetrahydro-imidazo[1,5-a]pyrimidin-6-ylamine] | inhibition at […] (human BACE1; at 2.5 uM): 49% |
| – | – | – | 35 | NC1=N[C@](c2ccc(OC(F)(F)F)cc2)(c2cccc(-c3cccnc3F)c2)C2=NCCCN12 (single isomer, unassigned) [Example 30A] | – |
| – | 3.79 | – | – | NC1=N[C@@](c2ccc(OC(F)(F)F)cc2)(c2cccc(-c3cccnc3F)c2)C2=NCCCN12 (single isomer, unassigned) [Example 30B] | – |
| – | 10.4 | – | – | NC1=N[C@](c2ccc(OC(F)(F)F)cc2)(c2cccc(-c3cncnc3)c2)C2=NCCCN12 (single isomer, unassigned) [Example 31A] | – |
| – | – | – | 25 | NC1=N[C@](c2ccc(OC(F)(F)F)cc2)(c2cccc(-c3cnccc3F)c2)C2=NCCCN12 [Example 33B, (8R)-8-[3-(4-fluoropyridin-3-yl)phenyl]-8-[4-(trifluoromethoxy)phenyl]-2,3,4,8-tetrahydroimidazo[1,5-a]pyrimidin-6-amine] | inhibition at 5 µM (human BACE1): 43% |
